Assay results from ChEMBL document CHEMBL1201862, “PubChem BioAssay data set” (2004).
The source made the active and inactive calls.

Key:
[1] = biological target: G-protein coupled receptor 183 (Homo sapiens, UniProt P32249); assay: SAR confirmation of small molecule antagonists of the EBI2 receptor via a luminescent beta-arrestin assa.; assay type: functional
[2] = growth inhibition of yeast DHODH-expressing 3D7 parasites – SYBR Green, dry powder samples, dose response (AID 1159570); assay type: functional, cell-based;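 also: parasite growth measured after 72 hours of compound exposure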
[3] = toxicity to human HepG2 hepatoma cells – cell-based, plate reader, dry powder samples, cytotoxicity control, dose response (AID 1159569); assay type: functional;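 also: inhibitor potency with signal falling toward the positive control level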
[4] = P. falciparum Dd2 growth inhibitors, dose response, SYBR Green, cherry-picked samples (AID 1159567); assay type: functional, cell-based
[5] = Dd2 malaria parasite growth inhibition potency – SYBR Green, dry powder samples, dose response (AID 1159566); assay type: functional, cell-based;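 also: potency for growth inhibition with lower SYBR green DNA signal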
[6] = Plasmodium falciparum Dd2 Sybr green parasite growth Measured in Cell-Based and Microorganism Combination System Using Plate Reader - 2153-01_Inhibitor_Dose_DryPowder_Activity_Set3.; assay type: functional
[7] = growth inhibition of PfATP4-mutant resistant parasites – NITD609-resistant line, SYBR Green, dry powder, dose response (AID 1159571); assay type: functional, cell-based;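 also: parasites synchronized at ring stage by sorbitol before testing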
[8] = biological target: Metabotropic glutamate receptor 7 (Homo sapiens, UniProt Q14831); assay: potentiation of glutamate EC20 at mGlu7 – cell-based, calcium mobilization, Galpha15, dose response (AID 743384); assay type: functional
[9] = Luminescent dose response cell-based high throughput screening assay for inhibitors of the Janus kinase 2 mutant JAK2V617F. [Related pubchem assays: 1446 (Primary screen.), 1521 (Confirmation assay.), 1486 (Counter screen.)]; assay type: functional
[10] = biological target: T1, Heat shock factor protein 1 (Mus musculus, UniProt P38532); assay: enhancement of HSF1-driven luciferase signal – cell-based, NIH3T3, luminescence, dose retest, confirmation (AID 435004); assay type: functional;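 also: stress induced by proteasome inhibitor MG132 added 30 min after compound; luciferase reporter driven by HSF1 response element in NIH3T3 cells; actives raise luminescence as potentiators of the MG132 stress response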
T1 sequence (P38532 whole entry): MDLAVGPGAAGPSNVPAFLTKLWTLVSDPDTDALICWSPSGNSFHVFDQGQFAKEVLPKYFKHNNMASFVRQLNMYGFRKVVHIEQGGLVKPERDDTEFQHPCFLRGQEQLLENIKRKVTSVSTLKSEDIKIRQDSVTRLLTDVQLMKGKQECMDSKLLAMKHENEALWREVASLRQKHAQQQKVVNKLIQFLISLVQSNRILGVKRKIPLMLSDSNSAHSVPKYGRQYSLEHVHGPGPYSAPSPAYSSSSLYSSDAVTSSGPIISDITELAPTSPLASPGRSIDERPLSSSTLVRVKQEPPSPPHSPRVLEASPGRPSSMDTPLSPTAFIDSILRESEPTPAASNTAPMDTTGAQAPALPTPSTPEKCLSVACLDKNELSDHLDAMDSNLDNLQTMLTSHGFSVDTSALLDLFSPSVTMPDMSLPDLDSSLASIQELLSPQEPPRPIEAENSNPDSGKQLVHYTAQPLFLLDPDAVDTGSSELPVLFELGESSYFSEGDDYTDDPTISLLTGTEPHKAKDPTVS

[11] = biological target: T2, RNA-binding protein pos-1 (Caenorhabditis elegans, UniProt G5EF15); assay: disruptors of C. elegans POS-1 RNA interaction – biochemical, fluorescence polarization, dose response (AID 1964);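 also: purified POS-1 fused to maltose binding protein made in E. coli; potency of compounds blocking POS-1 binding to fluorescent RNA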
T2 sequence (G5EF15 whole entry): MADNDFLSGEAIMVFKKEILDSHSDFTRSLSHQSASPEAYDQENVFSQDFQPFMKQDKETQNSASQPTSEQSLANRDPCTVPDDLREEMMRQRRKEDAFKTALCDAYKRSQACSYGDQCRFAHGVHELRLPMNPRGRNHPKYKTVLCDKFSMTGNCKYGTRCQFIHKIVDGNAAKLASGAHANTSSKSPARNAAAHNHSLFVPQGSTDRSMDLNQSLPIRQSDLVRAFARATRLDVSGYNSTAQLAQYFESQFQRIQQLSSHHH

[12] = biological target: T3, Zinc finger protein mex-5 (Caenorhabditis elegans, UniProt Q9XUB2); assay: potency of MEX-5 RNA-binding blockers – biochemical, C. elegans, fluorescence polarization, dose response (AID 1960)
T3 sequence (Q9XUB2 whole entry): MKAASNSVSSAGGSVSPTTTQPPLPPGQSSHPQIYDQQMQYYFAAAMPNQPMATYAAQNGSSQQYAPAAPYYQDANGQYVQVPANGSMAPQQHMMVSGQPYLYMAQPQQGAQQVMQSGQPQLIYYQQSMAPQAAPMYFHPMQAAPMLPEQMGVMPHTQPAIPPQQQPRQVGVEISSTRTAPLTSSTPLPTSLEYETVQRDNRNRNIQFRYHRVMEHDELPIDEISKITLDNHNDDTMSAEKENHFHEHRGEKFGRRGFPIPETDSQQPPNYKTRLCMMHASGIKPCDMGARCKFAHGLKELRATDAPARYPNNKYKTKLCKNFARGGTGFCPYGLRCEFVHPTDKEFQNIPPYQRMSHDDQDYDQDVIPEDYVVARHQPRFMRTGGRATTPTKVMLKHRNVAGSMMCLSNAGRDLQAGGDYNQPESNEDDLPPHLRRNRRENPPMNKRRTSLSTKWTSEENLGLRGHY

Estrogen receptor beta = Estrogen receptor beta (Homo sapiens, UniProt Q92731);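 also: recombinant ER-beta bound to coactivator SRC1 peptide in presence of estradiol agonist; inhibitors block coactivator peptide binding and lower the FRET signal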
Chain of Estrogen receptor beta (Q92731 whole entry): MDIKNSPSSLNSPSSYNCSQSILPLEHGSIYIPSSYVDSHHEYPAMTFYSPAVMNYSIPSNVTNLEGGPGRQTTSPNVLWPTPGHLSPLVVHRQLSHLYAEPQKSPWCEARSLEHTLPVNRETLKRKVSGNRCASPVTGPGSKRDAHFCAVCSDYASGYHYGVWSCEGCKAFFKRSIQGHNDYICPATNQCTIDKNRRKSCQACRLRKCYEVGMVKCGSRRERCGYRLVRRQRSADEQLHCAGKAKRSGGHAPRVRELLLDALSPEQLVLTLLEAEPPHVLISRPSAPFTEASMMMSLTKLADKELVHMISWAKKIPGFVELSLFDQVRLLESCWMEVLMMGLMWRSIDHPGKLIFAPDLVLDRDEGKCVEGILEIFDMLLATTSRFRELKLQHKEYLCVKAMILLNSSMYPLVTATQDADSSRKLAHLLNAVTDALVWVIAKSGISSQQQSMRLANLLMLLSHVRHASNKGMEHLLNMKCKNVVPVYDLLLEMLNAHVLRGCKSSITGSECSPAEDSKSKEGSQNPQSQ

Chain of Metabotropic glutamate receptor 7 (Q14831 whole entry): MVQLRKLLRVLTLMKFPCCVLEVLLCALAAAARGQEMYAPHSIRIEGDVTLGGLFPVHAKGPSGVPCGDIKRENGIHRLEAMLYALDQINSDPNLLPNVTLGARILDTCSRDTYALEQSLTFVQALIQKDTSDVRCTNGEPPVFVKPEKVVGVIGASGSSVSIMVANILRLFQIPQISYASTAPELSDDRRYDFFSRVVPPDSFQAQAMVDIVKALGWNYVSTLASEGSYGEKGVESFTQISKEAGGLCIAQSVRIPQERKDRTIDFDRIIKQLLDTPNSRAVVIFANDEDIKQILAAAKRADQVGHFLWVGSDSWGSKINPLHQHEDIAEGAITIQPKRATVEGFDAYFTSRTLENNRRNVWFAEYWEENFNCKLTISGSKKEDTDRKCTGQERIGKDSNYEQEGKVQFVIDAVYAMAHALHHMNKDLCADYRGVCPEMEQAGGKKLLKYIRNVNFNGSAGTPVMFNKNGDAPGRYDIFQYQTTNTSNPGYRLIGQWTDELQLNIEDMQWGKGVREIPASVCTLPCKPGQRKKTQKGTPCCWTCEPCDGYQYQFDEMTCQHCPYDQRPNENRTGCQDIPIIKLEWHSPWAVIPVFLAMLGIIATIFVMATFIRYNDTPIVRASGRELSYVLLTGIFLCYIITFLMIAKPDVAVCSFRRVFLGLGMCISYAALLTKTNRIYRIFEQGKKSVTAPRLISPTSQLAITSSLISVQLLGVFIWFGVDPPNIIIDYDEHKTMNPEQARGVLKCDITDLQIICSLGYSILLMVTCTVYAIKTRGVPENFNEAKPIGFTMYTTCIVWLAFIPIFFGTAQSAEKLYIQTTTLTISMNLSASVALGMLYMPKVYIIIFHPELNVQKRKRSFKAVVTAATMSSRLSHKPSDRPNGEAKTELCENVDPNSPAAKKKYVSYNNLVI
Chain of G-protein coupled receptor 183 (P32249 whole entry): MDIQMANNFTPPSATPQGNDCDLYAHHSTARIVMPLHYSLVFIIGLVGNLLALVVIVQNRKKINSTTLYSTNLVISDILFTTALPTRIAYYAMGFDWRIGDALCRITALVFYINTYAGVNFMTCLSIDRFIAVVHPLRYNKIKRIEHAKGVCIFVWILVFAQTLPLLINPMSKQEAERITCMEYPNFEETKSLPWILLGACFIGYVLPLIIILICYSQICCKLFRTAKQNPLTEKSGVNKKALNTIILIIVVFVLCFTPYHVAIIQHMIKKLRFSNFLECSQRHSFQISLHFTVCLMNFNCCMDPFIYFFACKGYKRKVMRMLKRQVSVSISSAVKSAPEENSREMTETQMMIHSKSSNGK

With `CC(C)c1ccc(S(=O)(=O)N2CCN(C(=O)/C=C/c3ccc(F)cc3)CC2)cc1` the IC50 [1] was 24.3 nM (active).

With `O=C(/C=C/c1ccc(F)cc1)N1CCN(S(=O)(=O)C2=Cc3ccccc3CC2)CC1` the IC50 [1] was 1.15 nM (active).

For `CCCC(=O)Nc1ccc2c(c1)OC[C@@H](C)N(Cc1ccc(F)cc1)C[C@@H](C)[C@H](OC)CN(C)C2=O`, the AC50 [2] was 9670 nM (active), the AC50 [3] was 75800 nM (active) and the AC50 [4] was 1920 nM (active). For the same compound, the AC50 [5] was 753 nM (active), the AC50 [6] was 2510 nM (active) and the AC50 [7] was 2440 nM (active).

In the case of `CC(=O)Nc1ccc(SCC(=O)c2cc(C)n(CC3COc4ccccc4O3)c2C)cc1` (stereo not given), the EC50 [8] was 2600 nM (active).

For `CCOc1ccc(-n2c(C)cc(C(=O)CSCc3ccc(OC)cc3)c2C)cc1`, the EC50 [8] was 10000 nM (active).

In the case of `Cc1cc(SCC(=O)N/N=C/c2ccc(O)c(O)c2)c(C)cc1Br`, the IC50 [9] was 1650 nM (active) and the EC50 [10] was > 260000 nM (inactive).

For `ON=C1/C(=N\O)CC2(C/C1=N/O)OCCO2`, the EC50 [11] was > 300000 nM (not active), the EC50 [12] was 13000 nM (active) and the IC50 (Estrogen receptor beta) was 14100 nM (active).
